Measurements published in PMC9381509, “In-vivo pharmacokinetic studies of Dolutegravir loaded spray dried Chitosan nanoparticles as milk admixture for paediatrics infected with HIV” (Scientific Reports, 2022).
≈ marks a conversion by molar mass, not a printed value. Read-outs that look alike come from different tables or passages of the source.

What was measured:
[1] = In vivo plasma pharmacokinetics in Balb-C mice (HPLC); settings: for AUC(0-t): read-out: AUC0–24 h; for k el: read-out: Ke (converted)
Text: The pharmaceutical grade working standards of Dolutegravir were obtained as a gift from MSN Laboratories Hyderabad, India. The standard calibration of the pure drug in the mobile phase (Water: Acetonitrile: Methanol in 20:40:40 ratio with 0.2% formic acid) and mice plasma was plotted using the developed method. The plasma samples of untreated normal Balb/c mice were obtained from the Central Animal Facility, SASTRA Deemed University (Approval ID: 585/IAEC/RPP), and the plasma samples were spiked with known concentrations (1, 2, 3, 4, 5 and 10 µg/mL) of DTG and allowed to incubate at room temperature for 15 min. The detection was carried out at 260 nm with an injection volume of 20 μL, wherein the flow rate of the mobile phase was maintained at 1.0 mL/min at the column temperature of 35 °C. Moreover, the validation of the analytical method was also performed in accordance with the procedure referred to in the International Council on Harmonization (ICH) guidelines.
(§1) After validating the developed HPLC method, the same was utilized to quantify the drug present in the plasma and organ (lungs, liver, kidney, heart, brain, and uterus) samples collected at predetermined time points. A total of 114 animals (25–30 g) were acquired from the Central Animal Facility (CAF), SASTRA University, Thanjavur after obtaining the ethical approval from Institutional Animal Ethics Committee (IAEC). The animals were randomly divided into four groups (n = 6) for this study. All animals were housed in individual cages in a temperature-controlled facility. The surgical procedures were approved by IAEC at SASTRA University (585/SASTRA/IAEC/RPP). The experiments were performed following the guidelines issued by the Committee for the Purpose of Control and Supervision of Experiments on animals (CPCSEA), Ministry of Environment and Forest, Government of India and Animal Research: Reporting of In Vivo Experiments (ARRIVE). The 2 groups of mice were orally treated with pure DTG and DTG-loaded Chitosan NPs at the dose equivalent to 10 mg/kg[41] along with milk. The 3rd group of animals was treated with DTG at the same dose through an intravenous route to elucidate the absolute bioavailability and the 4th group of animals was reserved as untreated control for comparison. The blood and organ samples were withdrawn from all the experimental mice at 0.5 h, 3.5 h, 7 h, 14 h, 21 h, and 28 h after euthanizing the animal using CO2 inhalation. The concentration of the drug in each sample was determined by the developed HPLC method, followed by the pharmacokinetic parameters and biodistribution pattern evaluation.

blood cells = assay: Haematological analysis (complete blood cell count) of treated animals; assay type: in vivo; settings: Balb-C mice; for Basophils / Eosinophil / HCT / HGB / Lymphocyte / MCH / MCHC / MCV / MPV / Monocytes / Neutrophil / PCT / PDW / PLT / RBC / RDW-CV / RDW-SD / WBC: blood 28 h after administration
Description: The counting was made following the method of Beckman Coulter. It measures the changes in electrical resistance produced by non-conductive particles suspended in an electrolyte. The blood sample from the test animals was collected in EDTA tubes and was further suspended through a small orifice along with an electric current. At the sensing end, the suspended particle displaces its volume of electrolyte which was measured as the voltage pulse by the Beckman Coulter. The height of the voltage pulse in proportion to the volume of the blood cell. The white blood cells were quantified based on the VCS technology, where the individual cell volume (V), conductivity (C), and laser light scatter (S) were measured and the scattergram plotted the cell based on the above measurements.

[2] = parameters: method as in earlier work; settings: mice, single oral administration as suspension, plasma; ref 27 (Lee et al.); cited from earlier work
[3] = Organ biodistribution of DTG in mice (HPLC); assay type: in vivo; settings: mouse, Balb-C mice
Text: as §1

[4] = In-vitro drug release in 0.1 N HCl media by dialysis bag method; assay type: physicochemical; settings: 0.1 N HCl medium pH 1.2, dialysis bag, 37 °C
Description: The in vitro drug release study of the DTG-loaded Chitosan NPs was compared with the pure DTG in 0.1 N HCl pH 1.2 by dialysis bag method (Dialysis membrane Himedia, cut-off value—12–14 kDa). About 10 mg of pure drug and a similar dose equivalent amount of nanoparticles were taken for the drug release experiments. The test samples were mixed with 0.5 mL of the corresponding media, placed inside the dialysis bag, and immersed in 10 mL media in a vial. The temperature and magnetic stirring speed of the sample were retained at 37 °C ± 2 °C and 200 rpm, respectively throughout the 24 h study period. At every predetermined time point, the 10 mL samples were collected and immediately replaced with the fresh corresponding medium. The concentration of the drug in each sample was quantified by a UV–Visible spectrophotometer. The UV visible spectrophotometer (UV 1800, Shimadzu, Japan) was initialized with λmax of 260 nm. The absorbance of the test solution was recorded using the quartz cuvette (volume-3.5 mL, path length-1.5 cm) and the calculations were made based on the standard calibration curve by following the Beer Lamberts law. […] The drug release modelling was analysed using DD solver Software[36].

[5] = cited from earlier work
[6] = mouse, plasma, 10 mg/kg, intravenous route
[7] = mouse, plasma, oral dose equivalent to 10 mg/kg along with milk
[8] = plasma, oral dose equivalent to 10 mg/kg along with milk

C[C@@H]1CCO[C@H]2Cn3cc(C(=O)NCc4ccc(F)cc4F)c(=O)c(O)c3C(=O)N12 [DTG, Dolutegravir]
Cmax ([1]; Balb-C, mouse, plasma, iv, 10 mg/kg, plasma, 10 mg/kg, intravenous route, read-out: Cmax): 29300 ± 4010 ng/mL
Cmax ([1]; Balb-C, mouse, plasma, po, 10 mg/kg, plasma, oral dose equivalent to 10 mg/kg along with milk, read-out: Cmax): 29300 ± 4010 ng/mL
MRT [1, 6]: 12.07 ± 0.05 h
Tmax [1, 6]: 7 h
half-life [1, 6]: 10.5 ± 1.1 h
AUC(0-t) [1, 6]: 411000 ± 91000 ng·h/mL
clearance ([1]; mouse, plasma, 10 mg/kg, intravenous route, read-out: Clearance (converted)): 8.17 mL/min
k el [1, 6]: 1.81e-05 s⁻¹
Vd ([1]; mouse, plasma, 10 mg/kg, intravenous route, read-out: Vd): 1.87 ± 0.81 L/kg
AUC ([1]; mouse, plasma, 10 mg/kg, oral): 405000 ± 7000 ng·h/mL
MRT [1, 7]: 10.1 ± 0.93 h
Tmax [1, 7]: 7 h
half-life [1, 7]: 11.7 ± 1.6 h
AUC(0-t) [1, 7]: 405000 ± 7000 ng·h/mL
k el [1, 7]: 1.64e-05 s⁻¹
volume of distribution (Vd) ([1]; orally administered): 4.36 ± 0.78 L
Ka ([1]; plasma, 10 mg/kg, intravenous route): 0.26 h⁻¹
Cmax [1, 8]: 30150 ± 8060 ng/mL
Ka [1, 8]: 0.48 h⁻¹
Vd [1, 8]: 4.36 ± 0.78 L/kg
clearance [1, 8]: 8 ± 5.5 mL/min
Basophils (blood cells; IV): 0.01 ± 0.02 10^3/µL
Eosinophil (blood cells; IV): 0.06 ± 0.08 10^3/µL
HCT (blood cells; IV): 55.83 ± 17.67%
HGB (blood cells; IV): 13.70 ± 2.95 g/dL
Lymphocyte (blood cells; IV): 12.83 ± 8.46 10^3/µL
MCH (blood cells; IV): 16.23 ± 1.46 pg
MCHC (blood cells; IV): 25.27 ± 3.33 g/dL
MCV (blood cells; IV): 64.47 ± 2.75 fL
MPV (blood cells; IV): 6.03 ± 0.15 fL
Monocytes (blood cells; IV): 0.10 ± 0.07 10^3/µL
Neutrophil (blood cells; IV): 5.15 ± 1.74 10^3/µL
PCT (blood cells; IV): 0.50 ± 0.18%
PDW (blood cells; IV): 15.23 ± 0.32
PLT (blood cells; IV): 617.00 ± 27.89 10^3/µL
RBC (blood cells; IV): 8.60 ± 2.47 10^6/µL
RDW-CV (blood cells; IV): 15.37 ± 1.11%
RDW-SD (blood cells; IV): 40.60 ± 4.25 fL
WBC (blood cells; IV): 18.14 ± 10.24 10^3/µL
Basophils (blood cells; oral with milk): 0.00 10^3/µL
Eosinophil (blood cells; oral with milk): 0.04 ± 0.03 10^3/µL
HCT (blood cells; oral with milk): 63.77 ± 1.96%
HGB (blood cells; oral with milk): 15.10 ± 0.72 g/dL
Lymphocyte (blood cells; oral with milk): 12.30 ± 1.67 10^3/µL
MCH (blood cells; oral with milk): 15.57 ± 0.15 pg
MCHC (blood cells; oral with milk): 23.67 ± 0.15 g/dL
MCV (blood cells; oral with milk): 65.90 ± 4.10 fL
MPV (blood cells; oral with milk): 5.97 ± .06 fL
Monocytes (blood cells; oral with milk): 0.15 ± 0.06 10^3/µL
Neutrophil (blood cells; oral with milk): 5.32 ± 1.71 10^3/µL
PCT (blood cells; oral with milk): 0.52 ± 0.07%
PDW (blood cells; oral with milk): 15.17 ± 0.15
PLT (blood cells; oral with milk): 674.67 ± 42.91 10^3/µL
RBC (blood cells; oral with milk): 9.69 ± 0.48 10^6/µL
RDW-CV (blood cells; oral with milk): 15.47 ± 1.58%
RDW-SD (blood cells; oral with milk): 41.73 ± .90 fL
WBC (blood cells; oral with milk): 17.81 ± 3.38 10^3/µL
toxicity to the blood cells (haematology versus untreated control) (blood cells; oral and IV administration, no statistically significant difference to control): non-toxic to the blood cells
Cmax [2]: 50000 ng/mL
AUC ([3]; brain, IV, 10 mg/kg, read-out: AUC of biodistribution of DTG in brain): 2400 ± 330 ng·h/mL
AUC ([3]; brain, oral with milk, 10 mg/kg equivalent, read-out: AUC of biodistribution of DTG in brain): 2600 ± 500 ng·h/mL
AUC ([3]; heart, IV, 10 mg/kg, read-out: AUC of biodistribution of DTG in heart): 2000 ± 380 ng·h/mL
AUC ([3]; heart, oral with milk, 10 mg/kg equivalent, read-out: AUC of biodistribution of DTG in heart): 2100 ± 400 ng·h/mL
AUC ([3]; kidney, IV, 10 mg/kg, read-out: AUC of biodistribution of DTG in kidney): 3800 ± 1300 ng·h/mL
AUC ([3]; kidney, oral with milk, 10 mg/kg equivalent, read-out: AUC of biodistribution of DTG in kidney): 2200 ± 400 ng·h/mL
AUC ([3]; liver, IV, 10 mg/kg, read-out: AUC of biodistribution of DTG in liver): 4600 ± 1200 ng·h/mL
AUC ([3]; liver, oral with milk, 10 mg/kg equivalent, read-out: AUC of biodistribution of DTG in liver): 7200 ± 1400 ng·h/mL
AUC ([3]; lungs, IV, 10 mg/kg, read-out: AUC of biodistribution of DTG in lungs): 4300 ± 680 ng·h/mL
AUC ([3]; lungs, oral with milk, 10 mg/kg equivalent, read-out: AUC of biodistribution of DTG in lungs): 2500 ± 400 ng·h/mL
AUC ([3]; uterus, IV, 10 mg/kg, read-out: AUC of biodistribution of DTG in uterus): 5500 ± 1200 ng·h/mL
AUC ([3]; uterus, oral with milk, 10 mg/kg equivalent, read-out: AUC of biodistribution of DTG in uterus): 1500 ± 400 ng·h/mL
time taken to release 80% of the drug (T80) [4]: 20 h
aqueous solubility ([5]; 25 °C, no ref printed at the value): 95 µg/mL (≈ 227 µM)
BCS class ([5]; ref not given): BCS class II
